Results published in article PMC5218480 (PLoS ONE, 2017).

Test system: MV-4-11 cells
Test: Gene expression microarray analysis (Affymetrix PrimeView) and GSEA
Format: cell-based, human
Design: RFU PODN (11730768_x_at) / Fold change /veh PODN (11730768_x_at) / RFU LINC00158 (11744669_a_at) / Fold change /veh LINC00158 (11744669_a_at) / RFU DUSP10 (11751237_a_at) / Fold change /veh DUSP10 (11751237_a_at) / RFU ID3 (11757404_x_at) / Fold change /veh ID3 (11757404_x_at) / RFU PLEKHG5 (11737974_s_at) / Fold change /veh PLEKHG5 (11737974_s_at) / RFU LRRC4B (11730491_at) / Fold change /veh LRRC4B (11730491_at) / RFU GIMAP4 (11747438_a_at) / Fold change /veh GIMAP4 (11747438_a_at) / RFU KRT8 (11758183_x_at) / Fold change /veh KRT8 (11758183_x_at) / RFU CNN1 (11734310_a_at) / Fold change /veh CNN1 (11734310_a_at) / RFU VPS37D (11726825_at) / Fold change /veh VPS37D (11726825_at) / RFU C10orf10 (11716522_x_at) / Fold change /veh C10orf10 (11716522_x_at) / RFU KIR2DL2 /// KIR2DL4 /// KIR2DL5A /// KIR2DL5B /// KIR2DS1 /// KIR2DS2 /// KIR2DS3 /// KIR2DS4 /// KIR3DL3 /// KIR3DL3 /// KIR3DS1 (11738374_at) / Fold change /veh KIR2DL2 /// KIR2DL4 /// KIR2DL5A /// KIR2DL5B /// KIR2DS1 /// KIR2DS2 /// KIR2DS3 /// KIR2DS4 /// KIR3DL3 /// KIR3DL3 /// KIR3DS1 (11738374_at) / RFU C1QL1 (11718748_at) / Fold change /veh C1QL1 (11718748_at) / RFU TMPRSS4 (11747572_a_at) / Fold change /veh TMPRSS4 (11747572_a_at) / RFU HAMP (11756126_x_at) / Fold change /veh HAMP (11756126_x_at) / RFU RNFT2 (11725882_a_at) / Fold change /veh RNFT2 (11725882_a_at) / RFU NR4A2 (11747474_a_at) / Fold change /veh NR4A2 (11747474_a_at) / RFU ABCC12 (11746883_a_at) / Fold change /veh ABCC12 (11746883_a_at) / RFU TMEM136 (11760407_x_at) / Fold change /veh TMEM136 (11760407_x_at) / RFU CLDN22 /// WWC2 (11732394_at) / Fold change /veh CLDN22 /// WWC2 (11732394_at) / RFU HLA-DPB1 (11760878_x_at) / Fold change /veh HLA-DPB1 (11760878_x_at) / RFU SPINT1 (11716480_a_at) / Fold change /veh SPINT1 (11716480_a_at) / RFU GAP43 (11754022_s_at) / Fold change /veh GAP43 (11754022_s_at) / RFU A4GNT (11735810_at) / Fold change /veh A4GNT (11735810_at) / RFU PRB3 (11715151_x_at) / Fold change /veh PRB3 (11715151_x_at) / RFU TUBB4B (11761932_at) / Fold change /veh TUBB4B (11761932_at) / RFU CAPN14 (11732068_a_at) / Fold change /veh CAPN14 (11732068_a_at) / RFU TMCC2 (11721928_a_at) / Fold change /veh TMCC2 (11721928_a_at) / RFU IRGQ (11745062_a_at) / Fold change /veh IRGQ (11745062_a_at) / RFU FAM174B (11720279_a_at) / Fold change /veh FAM174B (11720279_a_at) / RFU TMPRSS4 (11748680_a_at) / Fold change /veh TMPRSS4 (11748680_a_at) / RFU FAM212B (11763350_a_at) / Fold change /veh FAM212B (11763350_a_at) / RFU PLEKHG5 (11743358_a_at) / Fold change /veh PLEKHG5 (11743358_a_at) / RFU ZSCAN30 (11745921_a_at) / Fold change /veh ZSCAN30 (11745921_a_at) / RFU CMKLR1 (11741424_a_at) / Fold change /veh CMKLR1 (11741424_a_at) / RFU LOC101060620 /// MAPK8IP1 (11723275_at) / Fold change /veh LOC101060620 /// MAPK8IP1 (11723275_at) / RFU SPTSSB (11747773_x_at) / Fold change /veh SPTSSB (11747773_x_at) / RFU PRSS12 (11739890_at) / Fold change /veh PRSS12 (11739890_at) / RFU BIN1 (11741810_x_at) / Fold change /veh BIN1 (11741810_x_at) / RFU WNT11 (11732464_a_at) / Fold change /veh WNT11 (11732464_a_at) / RFU C10orf10 (11716521_a_at) / Fold change /veh C10orf10 (11716521_a_at) / RFU C5orf56 (11738089_at) / Fold change /veh C5orf56 (11738089_at) / RFU CYB561 (11721691_x_at) / Fold change /veh CYB561 (11721691_x_at) / RFU ANKRD19P (11752326_a_at) / Fold change /veh ANKRD19P (11752326_a_at) / RFU OR2T12 /// OR2T33 /// OR2T8 (11738714_s_at) / Fold change /veh OR2T12 /// OR2T33 /// OR2T8 (11738714_s_at) / RFU VCAN (11748164_a_at) / Fold change /veh VCAN (11748164_a_at) / RFU JSRP1 (11732532_at) / Fold change /veh JSRP1 (11732532_at) / RFU KRTAP10-11 (11738290_x_at) / Fold change /veh KRTAP10-11 (11738290_x_at) / RFU MYO3A (11730013_a_at) / Fold change /veh MYO3A (11730013_a_at) / RFU EBF3 (11725865_a_at) / Fold change /veh EBF3 (11725865_a_at) / RFU CAMK2N1 (11719241_x_at) / Fold change /veh CAMK2N1 (11719241_x_at) / RFU C5orf56 (11738088_a_at) / Fold change /veh C5orf56 (11738088_a_at) / RFU OLFML3 (11715873_a_at) / Fold change /veh OLFML3 (11715873_a_at) / RFU LOC100653217 /// NTM (11731650_a_at) / Fold change /veh LOC100653217 /// NTM (11731650_a_at) / RFU MAPK11 (11762145_a_at) / Fold change /veh MAPK11 (11762145_a_at) / RFU FIZ1 (11724087_x_at) / Fold change /veh FIZ1 (11724087_x_at) / RFU OASL (11726364_x_at) / Fold change /veh OASL (11726364_x_at) / RFU SOX15 (11748057_x_at) / Fold change /veh SOX15 (11748057_x_at) / RFU CD79A (11719716_a_at) / Fold change /veh CD79A (11719716_a_at) / RFU HIST1H1D (11736915_at) / Fold change /veh HIST1H1D (11736915_at) / RFU CASKIN2 (11723855_a_at) / Fold change /veh CASKIN2 (11723855_a_at) / RFU LOC730098 (11760151_x_at) / Fold change /veh LOC730098 (11760151_x_at) / RFU OR4N2 (11742367_at) / Fold change /veh OR4N2 (11742367_at) / RFU PRRT2 (11749266_a_at) / Fold change /veh PRRT2 (11749266_a_at) / RFU SNX32 (11753110_a_at) / Fold change /veh SNX32 (11753110_a_at) / RFU CDHR5 (11726645_a_at) / Fold change /veh CDHR5 (11726645_a_at) / RFU RCAN1 (11760418_a_at) / Fold change /veh RCAN1 (11760418_a_at) / RFU FAM167A (11723789_a_at) / Fold change /veh FAM167A (11723789_a_at) / RFU FAM26E (11764081_at) / Fold change /veh FAM26E (11764081_at) / RFU ISYNA1 (11749810_s_at) / Fold change /veh ISYNA1 (11749810_s_at) / RFU ACY1 (11761880_at) / Fold change /veh ACY1 (11761880_at) / RFU 11764098_at / Fold change /veh 11764098_at / RFU SAMD14 (11745864_x_at) / Fold change /veh SAMD14 (11745864_x_at) / RFU NPB (11741838_a_at) / Fold change /veh NPB (11741838_a_at) / RFU TMPRSS6 (11731388_a_at) / Fold change /veh TMPRSS6 (11731388_a_at) / RFU KRTAP10-2 (11738614_at) / Fold change /veh KRTAP10-2 (11738614_at) / RFU ARHGAP8 /// PRR5-ARHGAP8 (11727945_x_at) / Fold change /veh ARHGAP8 /// PRR5-ARHGAP8 (11727945_x_at) / RFU KRTAP5-7 /// NADSYN1 (11734609_at) / Fold change /veh KRTAP5-7 /// NADSYN1 (11734609_at) / RFU RASL12 (11751679_a_at) / Fold change /veh RASL12 (11751679_a_at) / RFU CDKN2B (11736163_a_at) / Fold change /veh CDKN2B (11736163_a_at) / RFU PRF1 (11729649_at) / Fold change /veh PRF1 (11729649_at) / RFU, ZNF638 /// ZNF638-IT1 / Fold change vs veh, ZNF638 /// ZNF638-IT1 / RFU, PANK3 / Fold change vs veh, PANK3 / RFU, SH3YL1 / Fold change vs veh, SH3YL1 / RFU, ZEB2 / Fold change vs veh, ZEB2 / RFU, NRIP1 / Fold change vs veh, NRIP1 / RFU, PTTG1IP / Fold change vs veh, PTTG1IP / RFU, CAPN2 / Fold change vs veh, CAPN2 / RFU, MED14 / Fold change vs veh, MED14 / RFU, SNORA58 / Fold change vs veh, SNORA58 / RFU, C1orf63 / Fold change vs veh, C1orf63 / RFU, LRRFIP1 / Fold change vs veh, LRRFIP1 / RFU, NDUFAF7 / Fold change vs veh, NDUFAF7 / RFU, SLC12A2 / Fold change vs veh, SLC12A2 / RFU, IBTK / Fold change vs veh, IBTK / RFU, ESF1 / Fold change vs veh, ESF1 / Fold change vs veh, TMEM50B / RFU, TAOK1 / Fold change vs veh, TAOK1 / RFU, ACBD3 / Fold change vs veh, ACBD3 / RFU, TMA16 / Fold change vs veh, TMA16 / RFU, RWDD3 / Fold change vs veh, RWDD3 / RFU, BCAT1 / Fold change vs veh, BCAT1 / RFU, EDEM3 / Fold change vs veh, EDEM3 / RFU, TMEM33 / Fold change vs veh, TMEM33 / RFU, WDR75 / Fold change vs veh, WDR75 / RFU, AHCTF1 / Fold change vs veh, AHCTF1 / RFU, TFRC / Fold change vs veh, TFRC / RFU, ZDHHC17 / Fold change vs veh, ZDHHC17 / RFU, NOM1 / Fold change vs veh, NOM1 / RFU, ARL8B / Fold change vs veh, ARL8B / RFU, ZBTB11 / Fold change vs veh, ZBTB11 / RFU, TAMM41 / Fold change vs veh, TAMM41 / RFU, KIAA1704 /// LOC100996395 / Fold change vs veh, KIAA1704 /// LOC100996395 / RFU, ING1 / Fold change vs veh, ING1 / RFU, TRMT61B / Fold change vs veh, TRMT61B / RFU, FUBP3 / Fold change vs veh, FUBP3 / RFU, TP53 / Fold change vs veh, TP53 / RFU, TNKS2 / Fold change vs veh, TNKS2 / RFU, ZFP14 / Fold change vs veh, ZFP14 / RFU, ACTR2 / Fold change vs veh, ACTR2 / RFU, PPP3R1 / Fold change vs veh, PPP3R1 / RFU, PIK3R1 / Fold change vs veh, PIK3R1 / RFU, HNRNPA1 / Fold change vs veh, HNRNPA1 / RFU, RNF170 / Fold change vs veh, RNF170 / RFU, ZNF28 / Fold change vs veh, ZNF28 / RFU, RNGTT / Fold change vs veh, RNGTT / RFU, OGT / Fold change vs veh, OGT / RFU, BRD1 / Fold change vs veh, BRD1 / RFU, MARS / Fold change vs veh, MARS / RFU, ZNF655 / Fold change vs veh, ZNF655 / RFU, FAHD1 / Fold change vs veh, FAHD1 / RFU, BDP1 / Fold change vs veh, BDP1 / RFU, LRRCC1 / Fold change vs veh, LRRCC1 / RFU, ARID1A / Fold change vs veh, ARID1A / RFU, ZNF146 / Fold change vs veh, ZNF146 / RFU, ZNF330 / Fold change vs veh, ZNF330 / RFU, GPN3 / Fold change vs veh, GPN3 / RFU, C9orf123 / Fold change vs veh, C9orf123 / RFU, N4BP2L2 / Fold change vs veh, N4BP2L2 / RFU, ARFIP1 / Fold change vs veh, ARFIP1 / RFU, FAM179B / Fold change vs veh, FAM179B / RFU, BCL10 / Fold change vs veh, BCL10 / RFU, UHRF1BP1L / Fold change vs veh, UHRF1BP1L / RFU, BET1 / Fold change vs veh, BET1 / RFU, CNOT2 / Fold change vs veh, CNOT2 / RFU, ZNF268 / Fold change vs veh, ZNF268 / Fold change vs veh, ZNF507 / RFU, DGCR2 / Fold change vs veh, DGCR2 / RFU, WDSUB1 / Fold change vs veh, WDSUB1 / Fold change vs veh, HSP90B1 /// MIR3652 / RFU, ADSS / Fold change vs veh, ADSS / RFU, GK / Fold change vs veh, GK / RFU, ZNF148 / Fold change vs veh, ZNF148 / RFU, TAF9 / Fold change vs veh, TAF9 / RFU, SLC1A5 / Fold change vs veh, SLC1A5 / RFU, SLMO2 / Fold change vs veh, SLMO2 / RFU, ABCC4 / Fold change vs veh, ABCC4 / RFU, LOC101060439 /// RAP1B / Fold change vs veh, LOC101060439 /// RAP1B / RFU, RFX7 / Fold change vs veh, RFX7 / RFU, GTPBP10 / Fold change vs veh, GTPBP10 / RFU, CNEP1R1 / Fold change vs veh, CNEP1R1 / RFU, BIVM-ERCC5 /// ERCC5 / Fold change vs veh, BIVM-ERCC5 /// ERCC5 / RFU, ILF3 / Fold change vs veh, ILF3 / RFU 11762660_at / Fold change /veh 11762660_at / RFU VCAN (11757783_s_at) / Fold change /veh VCAN (11757783_s_at) / RFU DDX43 (11728927_at) / Fold change /veh DDX43 (11728927_at) / RFU KRT8 (11758188_x_at) / Fold change /veh KRT8 (11758188_x_at) / RFU NKD1 (11759106_at) / Fold change /veh NKD1 (11759106_at) / RFU SRD5A1 (11742802_a_at) / Fold change /veh SRD5A1 (11742802_a_at) / RFU TPSAB1 /// TPSB2 (11721975_s_at) / Fold change /veh TPSAB1 /// TPSB2 (11721975_s_at) / RFU GSTM3 (11746129_a_at) / Fold change /veh GSTM3 (11746129_a_at) / RFU IL23R (11737362_x_at) / Fold change /veh IL23R (11737362_x_at) / RFU TMEM51 (11727254_a_at) / Fold change /veh TMEM51 (11727254_a_at) / RFU PIWIL2 (11732686_x_at) / Fold change /veh PIWIL2 (11732686_x_at) / RFU ORM1 (11744905_x_at) / Fold change /veh ORM1 (11744905_x_at) / RFU CCDC152 (11743942_at) / Fold change /veh CCDC152 (11743942_at) / RFU ECM1 (11717891_a_at) / Fold change /veh ECM1 (11717891_a_at) / RFU IL23R (11748794_a_at) / Fold change /veh IL23R (11748794_a_at) / RFU TNFAIP8L3 (11732012_x_at) / Fold change /veh TNFAIP8L3 (11732012_x_at) / RFU MBOAT4 (11741988_at) / Fold change /veh MBOAT4 (11741988_at) / RFU 11764193_at / Fold change /veh 11764193_at / RFU TMEM53 (11763286_at) / Fold change /veh TMEM53 (11763286_at) / RFU MAGEB2 (11727129_at) / Fold change /veh MAGEB2 (11727129_at) / RFU TMEM200A (11744735_a_at) / Fold change /veh TMEM200A (11744735_a_at) / RFU CCDC152 (11751479_a_at) / Fold change /veh CCDC152 (11751479_a_at) / RFU FAM211A (11726209_a_at) / Fold change /veh FAM211A (11726209_a_at) / RFU RGS16 (11746705_a_at) / Fold change /veh RGS16 (11746705_a_at) / RFU VCAN (11755009_s_at) / Fold change /veh VCAN (11755009_s_at) / RFU RHOB (11743442_s_at) / Fold change /veh RHOB (11743442_s_at) / RFU RGS16 (11720943_a_at) / Fold change /veh RGS16 (11720943_a_at) / RFU RGS16 (11720944_at) / Fold change /veh RGS16 (11720944_at) / RFU, VPS4B / Fold change vs veh, VPS4B / RFU, CREB1 / Fold change vs veh, CREB1 / RFU, DNAJC13 / Fold change vs veh, DNAJC13 / RFU, GNAQ / Fold change vs veh, GNAQ / RFU, CDK5R1 / Fold change vs veh, CDK5R1 / RFU, ZRANB3 / Fold change vs veh, ZRANB3 / RFU, CUL4A / Fold change vs veh, CUL4A / RFU, CCNY / Fold change vs veh, CCNY / RFU, UFL1 / Fold change vs veh, UFL1 / RFU, COG3 / Fold change vs veh, COG3 / RFU, DIAPH2 / Fold change vs veh, DIAPH2 / RFU, SKA2 / Fold change vs veh, SKA2 / RFU, AFF3 / Fold change vs veh, AFF3 / RFU, LMF1 / Fold change vs veh, LMF1 / RFU, IPO11 / Fold change vs veh, IPO11 / RFU, DFFB / Fold change vs veh, DFFB / RFU, FOXP1 / Fold change vs veh, FOXP1 / RFU, CARD8 / Fold change vs veh, CARD8 / RFU, STRN3 / Fold change vs veh, STRN3 / RFU, ADK / Fold change vs veh, ADK / RFU, RASSF2 / Fold change vs veh, RASSF2 / RFU, WIPF1 / Fold change vs veh, WIPF1 / RFU, LARP1B / Fold change vs veh, LARP1B / RFU, RASA1 / Fold change vs veh, RASA1 / RFU, RB1 / Fold change vs veh, RB1 / RFU, PPFIA1 / Fold change vs veh, PPFIA1 / RFU, MAT2A / Fold change vs veh, MAT2A / RFU, CCT5 / Fold change vs veh, CCT5 / RFU, WDR92 / Fold change vs veh, WDR92 / RFU, CUX1 / Fold change vs veh, CUX1 / RFU, TTC7A / Fold change vs veh, TTC7A / RFU, TMEM135 / Fold change vs veh, TMEM135 / RFU, DEPTOR / Fold change vs veh, DEPTOR / RFU, CPM / Fold change vs veh, CPM / RFU, DNAJB6 / Fold change vs veh, DNAJB6 / RFU, CACNA2D3 / Fold change vs veh, CACNA2D3 / RFU, DTX4 / Fold change vs veh, DTX4 / RFU, TFCP2 / Fold change vs veh, TFCP2 / RFU, GMCL1 /// GMCL1P1 / Fold change vs veh, GMCL1 /// GMCL1P1 / RFU, AEBP2 / Fold change vs veh, AEBP2 / RFU, SNHG1 /// SNORD22 /// SNORD25 /// SNORD26 /// SNORD27 /// SNORD28 /// SNORD29 /// SNORD31 / Fold change vs veh, SNHG1 /// SNORD22 /// SNORD25 /// SNORD26 /// SNORD27 /// SNORD28 /// SNORD29 /// SNORD31 / Fold change (Aza/veh), C12orf56 (ProbeSet 11735607_a_at) / Fold change (ACY-1035/veh), C12orf56 (ProbeSet 11735607_a_at) / Fold change (Aza/veh), FGFR1OP (ProbeSet 11751329_s_at) / Fold change (ACY-1035/veh), FGFR1OP (ProbeSet 11751329_s_at) / Fold change (Aza/veh), VPS36 (ProbeSet 11739960_a_at) / Fold change (ACY-1035/veh), VPS36 (ProbeSet 11739960_a_at) / RFU SYPL1 (11715823_x_at) / Fold change /veh SYPL1 (11715823_x_at) / RFU IGFBP7 (11715501_s_at) / Fold change /veh IGFBP7 (11715501_s_at) / RFU REEP3 (11722064_at) / Fold change /veh REEP3 (11722064_at) / RFU IGLL1 (11728026_x_at) / Fold change /veh IGLL1 (11728026_x_at): dose or concentration left out as unconfirmed
Conditions: ProbeSet 11755159_a_at; LIST D

**Q.** Which “Fold change vs veh, COG3” value does the source give for `Nc1ccc(-c2cccs2)cc1NC(=O)c1ccc2c(c1)cc(C1CC1)n2CCN1CCOCC1` [ACY-1035] here?
**A.** 0.96
